Data as given in patent US12421199B2, “Sphingosine 1 phosphate receptor modulators” (RECEPTOS LLC, priority 2020, dated 2025).

Legend:
[1] = molecular target: T1, S1P1 (Homo sapiens, UniProt P21453); test: [35S]-GTPγS binding assay, S1P1; assay type: biochemical; conditions: CHO-S1P receptor membranes; for Emax: control S1P, read-out: S1P1 % Efficacy
T1 construct: expressed in transfected cells; host or cells: CHO cell membranes
Procedure: (§1) Binding assays for [35S]-GTPTS were performed in 96-well non-binding surface plates with a final volume of 200 μL. The test compounds were serial diluted in DMSO and added to assay plates using a Tecan D300E digital printer with a total volume of 0.4 μL. The control sphingosine-1-phosphate (S1P) was prepared separately by preparing a 400 μM stock solution from a 100 nmol pellet of S1P in 10 mM Na2CO3 with 2% […]. The serial dilution of S1P was done using complete assay buffer (20 mM HEPES, 10 mM MgCl2, 100 mM NaCl, 1 mM EDTA, 0.1% fatty acid free bovine serum albumin [BSA], and 30 μg/mL saponin, pH7.4) and transferred to wells already containing 0.4 μL DMSO. All the wells were then loaded to a total volume of 40 μL of complete assay buffer, except the non-specific binding (NSB) wells. For NSB wells, 40 µL/well of 50 μM GTPTS (Sigma Aldrich, cat #G8634, St. Louis, MO) was added to wells containing 0.4 μL of DMSO. The assay was started by the addition of 120 μL/well of CHO-S1P receptor membrane solution containing 40 μg/mL of membrane protein, 16.67 μM guanosine diphosphate (GDP; Sigma Aldrich, cat #G7127, St. Louis, MO), and 2.5 mg/mL of WGA PVT SPA beads in complete buffer. Assay plates were then sealed and incubated at room temperature with gentle agitation for 30 minutes. Next, 40 μL/well of 1 nM of [^35S]-GTPTS (PerkinElmer, cat #NEG030X250UC, Waltham, MA) in basic assay buffer (20 mM HEPES, 10 mM MgCl2, 100 mM NaCl, and 1 mM EDTA, pH7.4) was added to the assay plates to yield a final concentration of […] and the plates were further incubated for 40 minutes at room temperature with gentle agitation. The assay was terminated by centrifugation of the plates at 1000 rpm for 3 minutes using an Eppendorf 5810R centrifuge (Eppendorf, Hamburg, Germany) and G protein bound radioactivity was quantitated using a MicroBeta2 microplate scintillation counter (PerkinElmer, Waltham, MA).

[2] = molecular target: T2, S1P5 (Homo sapiens, UniProt Q9H228); test: [35S]-GTPγS binding assay, S1P5; assay type: biochemical; conditions: CHO-S1P receptor membranes; for Emax: control S1P, read-out: S1P5 % Efficacy
T2 construct: expressed in transfected cells; host or cells: CHO cell membranes
T2 sequence (Q9H228 whole entry, species assumed): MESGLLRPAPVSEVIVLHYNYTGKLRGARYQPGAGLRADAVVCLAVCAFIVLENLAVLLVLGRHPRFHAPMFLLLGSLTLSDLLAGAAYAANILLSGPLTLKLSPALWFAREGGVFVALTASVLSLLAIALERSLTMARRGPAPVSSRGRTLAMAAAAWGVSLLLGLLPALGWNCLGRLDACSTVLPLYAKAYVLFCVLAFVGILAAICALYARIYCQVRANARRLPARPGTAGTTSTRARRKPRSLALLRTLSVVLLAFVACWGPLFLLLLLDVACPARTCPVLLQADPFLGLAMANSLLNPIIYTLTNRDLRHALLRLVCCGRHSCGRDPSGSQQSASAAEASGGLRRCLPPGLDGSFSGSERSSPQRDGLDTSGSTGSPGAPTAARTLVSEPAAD
Procedure: as §1

T1 sequence (P21453 whole entry, species assumed): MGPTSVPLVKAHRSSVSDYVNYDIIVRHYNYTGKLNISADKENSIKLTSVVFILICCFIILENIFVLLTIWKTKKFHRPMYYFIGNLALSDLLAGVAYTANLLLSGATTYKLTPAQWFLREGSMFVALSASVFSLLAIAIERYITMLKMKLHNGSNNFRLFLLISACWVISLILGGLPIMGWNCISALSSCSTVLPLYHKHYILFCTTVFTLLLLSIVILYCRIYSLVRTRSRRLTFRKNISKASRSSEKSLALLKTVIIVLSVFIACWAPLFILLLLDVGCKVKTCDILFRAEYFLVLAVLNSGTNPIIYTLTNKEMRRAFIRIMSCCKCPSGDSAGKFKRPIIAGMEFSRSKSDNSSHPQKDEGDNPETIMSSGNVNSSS

EC50 [1]	Emax [1]	EC50 [2]	Emax [2]	SMILES
7 nM	97%	77 nM	74%	CC(C)Oc1ccc(-c2nc(-c3cccc4c3CCC4(O)C(C)C)no2)cc1C#N (centres unmarked) [compound 4, 5-(3-(1-hydroxy-1-isopropyl-2,3-dihydro-1H-inden-4-yl)-1,2,4-oxadiazol-5-yl)-2-isopropoxybenzonitrile]
14 nM	97%	147 nM	80%	CCC1(O)CCc2c(-c3noc(-c4ccc(OC(C)C)c(C#N)c4)n3)cccc21 (centres unmarked) [compound 3, 5-(3-(1-ethyl-1-hydroxy-2,3-dihydro-1H-inden-4-yl)-1,2,4-oxadiazol-5-yl)-2-isopropoxybenzonitrile]
